Assays:
[1] = biological target: T1, BSA (Bos taurus, UniProt P02769); test: progesterone ligand binding assay by capillary IEF with fluorescence anisotropy, reference protein; conditions: ~100 nM of each labeled protein, 100 nM fluorescein labeled progesterone, 1% ampholytes, focused at 300V; FIG. 9D
T1 construct: purchased Fisher Scientific (Fairlawn, N.J.)
Method: Chemicals. Acetic acid, ammonium acetate, hydroxypropyl cellulose (HPC, avg. MW 100,000), HPLC grade dimethylsulfoxide (DMSO), HPLC grade water, BSA, and phosphate buffered saline (PBS, pH 7.4) were obtained from Fisher Scientific (Fairlawn, N.J.). Ampholytes (Pharmolyte 3-10 for IEF) were obtained from Amersham Biosciences (Piscataway, N.J.).
Sample Preparation. TRITC-labeled proteins were prepared according to manufacturer's protocol. […] TRITC was dissolved in DMSO at 1 mg/mL. The TRITC solution was added to the protein sample, and incubated in the dark for 2 hours.
Focusing Capillaries. 75 μm i.d., 360 μm o.d. fused silica capillaries (Polymicro, Phoenix, Ariz.) were coated with hydroxypropyl cellulose (HPC) by filling the capillaries with a 5% HPC solution and then baking them at 200° C. for 45 minutes. This treatment effectively eliminated the electroosmotic flow in the capillary.
cIEF. […]
Fluorescence anisotropy. Fluorescence emission was viewed using a Leica inverted microscope with a 10× long range objective in an epifluorescence configuration. […]
Since the microscope was operated in epifluorescence mode, it was not possible to measure a true anisotropy value. […] Since both the parallel and perpendicular emission intensities were not measured, the anisotropy value could be calculated, but this configuration did permit the detection of areas with increased anisotropies.

[2] = test system: lysate from MCF-7 breast cancer cells; test: DIABLA progesterone-protein interactions in a cell lysate; assay type: binding; conditions: MCF-7 breast cancer cell lysate, protocols as in Example 6
Method: The detection sensitivity of DIABLA was tested by examining progesterone-protein interactions in a lysate from MCF-7 breast cancer cells. The experimental protocols were essentially as described above in Example 6, except that a cell lysate was used rather than pure proteins. Five different protein targets that interact with progesterone were identified. FIG. 11 presents one of the targets.

T1 sequence (P02769 25-607): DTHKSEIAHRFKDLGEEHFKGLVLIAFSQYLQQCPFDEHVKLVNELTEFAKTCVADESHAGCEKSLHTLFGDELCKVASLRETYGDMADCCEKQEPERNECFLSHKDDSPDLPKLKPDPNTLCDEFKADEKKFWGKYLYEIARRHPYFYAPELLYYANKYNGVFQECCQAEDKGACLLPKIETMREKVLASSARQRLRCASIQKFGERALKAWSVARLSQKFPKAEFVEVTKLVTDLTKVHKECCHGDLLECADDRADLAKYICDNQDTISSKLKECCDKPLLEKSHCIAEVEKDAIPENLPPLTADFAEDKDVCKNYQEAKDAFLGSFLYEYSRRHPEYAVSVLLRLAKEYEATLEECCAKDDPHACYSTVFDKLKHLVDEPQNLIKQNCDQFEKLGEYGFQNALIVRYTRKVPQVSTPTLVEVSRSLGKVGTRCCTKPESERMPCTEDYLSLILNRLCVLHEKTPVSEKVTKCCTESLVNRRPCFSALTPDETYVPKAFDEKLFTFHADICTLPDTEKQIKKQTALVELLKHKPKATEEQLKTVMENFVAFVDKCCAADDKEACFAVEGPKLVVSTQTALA

CC(=O)[C@H]1CC[C@H]2[C@@H]3CCC4=CC(=O)CC[C@]4(C)[C@H]3CC[C@]12C [progesterone]
anisotropy in the region containing the focused BSA band [1]: no or low anisotropy
number of protein targets that interact with progesterone identified [2]: Five

From US7931791B2, “Method of detecting analyte-biomolecule interactions” (Southern Illinois University Carbondale, priority 2006, dated 2011)
